# Measurements taken from patent publication US20140323519A1, “HETEROCYCLIC COMPOUNDS AS B-RAF INHIBITORS FOR TREATMENT OF CANCER” (MERCK SHARP & DOHME CORP., priority 2011, published 2014).
# Target: T1, B-Raf kinase (Homo sapiens, UniProt P15056)
# T1 construct: purchased Upstate 14-530
# Test: B-Raf kinase assay (IMAP fluorescence polarisation, B-raf/MEK1/ERK2 cascade)
# Format: biochemical
# Conditions: B-raf 0.2 U/mL, 50 μM ATP, 60 min pre-incubation, FP readout
# Description: Other assays are known in the literature and could be readily performed by those of skill in the art.
# 9) B-raf, active enzyme (for example #14-530, Upstate)
# 13) Fluorescein labeled substrate peptide (“ERK-tide”; IPTTPITTTYFFFK-5FAM-COOH), (for example #R7292/#R7293, Molecular Devices)
# Prepare fresh Kinase Reaction buffer (KR-buffer) just before use: 50 mL Reaction buffer+50 μl 1 M DTT (1 mM final concentration). Serial dilutions of test compounds are made in 100% DMSO. For example a 10 points half log serial dilution from 1 mM to 31.6 nM leading to a final compound concentration range in the assay from 10 μM to 0.316 nM can be used.
# 1) Add 2.5 μL/well test compound in KR-buffer (this solution contains 8% DMSO) or (in minimum, maximum and background wells) 2.5 μL/well KR-buffer containing 8% DMSO. (Final DMSO concentration in the assay is 1%).
# 2) Add 5 μL/well 0.8 U/mL B-raf enzyme diluted in KR-buffer (final B-raf enzyme concentration in the assay is 0.2 U/mL) to all wells.
# 3) Pre-incubate 60 minutes at room temperature in the dark.
# 4) Add 5 μL/well 256 ng/mL MEK1 enzyme diluted in KR-buffer (final MEK1 enzyme concentration in the assay is 64 ng/mL) to all wells.
# 5) Add 5 μL/well 2.4 μg/mL Erk2 enzyme with 200 nM Fl-peptide substrate diluted in KR-buffer (final concentration in the assay of Erk2 enzyme is 600 ng/mL and of Fl-peptide substrate is 50 nM) to all wells except the background wells. Add here 5 μL/well 2.4 μg/mL Erk2 enzyme without 200 nM Fl-peptide substrate.
# 6) Add 2.5 μL/well 400 μM ATP to minimum and compound wells (50× dilution of the mM stock in KR-buffer, final ATP concentration in the assay is 50 μM) or (in maximum wells) 2.5 μl/well KR-buffer.
# 7) Incubate 60 minutes at 30° C. in the dark.
# 8) Add 20 μL/well IMAP Progressive Binding Solution (IMAP Progressive Binding Solution: 75% 1× buffer A and 25% 1× buffer B with 1:900 dilution of Progressive Binding Reagent, all kit contents) to all wells.
# 9) Incubate 60 minutes at room temperature in the dark.
# 10) Read the FP signal on Envision multi-label reader.
# On every 384-well assay plate, 16-18 wells are used as minimum wells (wells without inhibitor, 0% effect), 16-18 wells are used as maximum wells (wells without ATP, 100% effect). 16 wells are used for measuring the background signal (everything but not substrate). For all assay plates duplicates are prepared.
# Run as two independent experiments (N=2) on duplicate plates (n=2).
# IC50 Determinations: mP values of compound test wells are converted to percent effect based on 0% effect and 100% effect controls. Dose-response curves were generated from percent effect data plotted against test compound concentration, each in duplicate, from 10 point serial dilutions of inhibitory compounds. To generate IC50 values, the dose-response curves were fitted to a standard sigmoidal curve and IC50 values were derived by nonlinear regression analysis.
# T1 sequence (P15056 416-766 limits assumed): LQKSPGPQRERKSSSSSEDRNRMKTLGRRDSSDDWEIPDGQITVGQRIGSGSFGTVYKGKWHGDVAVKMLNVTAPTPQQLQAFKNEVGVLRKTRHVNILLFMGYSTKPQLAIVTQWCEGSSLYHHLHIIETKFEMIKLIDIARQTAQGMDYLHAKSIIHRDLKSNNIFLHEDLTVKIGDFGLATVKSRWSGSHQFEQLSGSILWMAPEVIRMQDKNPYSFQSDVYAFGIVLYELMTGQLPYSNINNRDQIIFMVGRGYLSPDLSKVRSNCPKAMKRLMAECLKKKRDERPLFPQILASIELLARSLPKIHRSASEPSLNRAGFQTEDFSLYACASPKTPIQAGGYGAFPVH
row,IC50,Structure (SMILES)
1,50 to 100 nM,"Cc1ccc(NC(=O)c2cccc(C(C)(C)C#N)c2)cc1N1CC(c2ccccc2)CC1=O (stereo not drawn) [Compound 1-5, 3-(Cyano-dimethyl-methyl)-N-[4-methyl-3-(2-oxo-4-phenyl-pyrrolidin-1-yl)-phenyl]-benzamide]"
2,50 to 100 nM,"Cc1ccc(NC(=O)c2cccc(C(C)(C)C#N)c2)cc1N1CC(c2ccccc2)OC1=O (stereo not drawn) [Compound 1-7, 3-(Cyano-dimethyl-methyl)-N-[4-methyl-3-(2-oxo-5-phenyl-oxazolidin-3-yl)-phenyl]-benzamide]"

# Second part, the compound before the results:
row,Structure (SMILES),IC50
1,"COc1ccc2c(c1)n(-c1cc(NC(=O)c3cccc(C(C)(C)C#N)c3)ccc1C)c(=O)n2C [Compound 1-9, 3-(Cyano-dimethyl-methyl)-N-[3-(6-methoxy-3-methyl-2-oxo-2,3-dihydro-benzoimidazol-1-yl)-4-methyl-phenyl]-benzamide]",> 100 nM
2,"Cc1ccc(NC(=O)c2cccc(C(C)(C)C#N)c2)cc1-n1c(=O)n(C)c2ccccc21 [Compound 1-6, 3-(2-cyanopropan-2-yl)-N-(4-methyl-3-(3-methyl-2-oxo-2,3-dihydro-1H-benzo[d]imidazol-1-yl)phenyl)benzamide]",50 to 100 nM
3,"COc1ccc2c(c1)C(=O)N(c1cc(NC(=O)c3cccc(C(C)(C)C#N)c3)ccc1C)C2 [Compound 1-1, 3-(2-cyanopropan-2-yl)-N-(3-(6-methoxy-1-oxoisoindolin-2-yl)-4-methylphenyl)benzamide]",50 to 100 nM
4,"Cc1ccc(NC(=O)c2cccc(C(C)(C)C#N)c2)cc1N1CCN(c2ccccc2)C1=O [Compound 1-8, 3-(Cyano-dimethyl-methyl)-N-[4-methyl-3-(2-oxo-3-phenyl-imidazolidin-1-yl)-phenyl]-benzamide]",> 100 nM
